Laboratory results as given in the supplement of paper PMC10307832.

Tests used:
Test in all cases: relative viability (nuclei count vs DMSO), 5 days (fraction); higher = more cells survive
[1] = test system: A-427
In short: (§1)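 Relative viability divides the nuclei count in treated wells by that in vehicle wells. Lung cancer cell lines were seeded in 1536-well plates, dosed by pin tool the next day, and fixed and stained after 5 days in one step with final 0.05% Triton X-100, 1% formaldehyde and 1 ug/ml Hoechst. Dosing was a single drug or a fixed anchor-drug dose plus five library-drug doses (not always all listed) in √10 steps, and values are medians of duplicate plates imaged at 4×.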

[2] = test system: BEN
In short: as §1

[3] = test system: EKVX
In short: as §1

[4] = test system: LK-2
In short: as §1

[5] = test system: NCI-H1563
In short: as §1

[6] = test system: NCI-H1755
In short: as §1

[7] = test system: NCI-H2085
In short: as §1

[8] = test system: NCI-H2228
In short: as §1

[9] = test system: NCI-H2347
In short: as §1

[10] = test system: NCI-H3122
In short: as §1

[11] = test system: NCI-H322M
In short: as §1

[12] = test system: NCI-H358
In short: as §1

[13] = test system: NCI-H460
In short: as §1

[14] = test system: NCI-H520
In short: as §1

[15] = test system: NCI-H596
In short: as §1

[16] = test system: NCI-H650
In short: as §1

[17] = test system: NCI-H727
In short: as §1

[18] = test system: NCI-H838
In short: as §1

[19] = test system: SW 1573
In short: as §1

In the case of `COCC1(CO)C(=O)C2CCN1CC2` (centres undefined) [PRIMA-1MET] + C[C@]1(O)C[C@@H](c2nc(-c3ccc4ccc(-c5ccccc5)nc4c3)c3c(N)nccn32)C1 [Linsitinib] (partner 1 µM), the relative viability ([1]; first compound 0.2 µM) is reported as 1.19, the relative viability ([1]; first compound 0.6325 µM) is reported as 0.703 and the relative viability ([1]; first compound 2 µM) is reported as 0.953. For the same compound, the relative viability ([1]; first compound 6.325 µM) was 1.12, the relative viability ([1]; first compound 20 µM) was 1.08 and the relative viability ([2]; first compound 0.2 µM) was 1.04. The relative viability ([2]; first compound 0.6325 µM) was 0.765, the relative viability ([2]; first compound 6.325 µM) was 1.08 and the relative viability ([2]; first compound 20 µM) was 0.85. For the same compound, the relative viability ([3]; first compound 0.2 µM) was 0.999, the relative viability ([3]; first compound 0.6325 µM) was 0.912 and the relative viability ([3]; first compound 2 µM) was 0.707. For the same compound, the relative viability ([3]; first compound 6.325 µM) was 1.03, the relative viability ([3]; first compound 20 µM) was 0.804 and the relative viability ([4]; first compound 0.2 µM) was 0.624. For the same compound, the relative viability ([4]; first compound 0.6325 µM) was 0.554, the relative viability ([4]; first compound 2 µM) was 0.237 and the relative viability ([4]; first compound 6.325 µM) was 0.224. It also gave a relative viability ([4]; first compound 20 µM) of 0.103, a relative viability ([5]; first compound 0.2 µM) of 1.25 and a relative viability ([5]; first compound 0.6325 µM) of 1.14. It also gave a relative viability ([5]; first compound 2 µM) of 1.15, a relative viability ([5]; first compound 6.325 µM) of 1.23 and a relative viability ([5]; first compound 20 µM) of 0.368. The relative viability ([6]; first compound 0.2 µM) was 0.979, the relative viability ([6]; first compound 0.6325 µM) was 0.946 and the relative viability ([6]; first compound 2 µM) was 0.937. The relative viability ([6]; first compound 6.325 µM) was 1.02, the relative viability ([6]; first compound 20 µM) was 0.983 and the relative viability ([7]; first compound 0.2 µM) was 1. It also gave a relative viability ([7]; first compound 0.6325 µM) of 0.826, a relative viability ([7]; first compound 2 µM) of 0.866 and a relative viability ([7]; first compound 6.325 µM) of 0.731. It also gave a relative viability ([7]; first compound 20 µM) of 0.287, a relative viability ([8]; first compound 0.2 µM) of 0.735 and a relative viability ([8]; first compound 0.6325 µM) of 0.552. For the same compound, the relative viability ([8]; first compound 2 µM) was 0.602, the relative viability ([8]; first compound 6.325 µM) was 0.61 and the relative viability ([8]; first compound 20 µM) was 0.046. The relative viability ([9]; first compound 0.2 µM) was 1.02, the relative viability ([9]; first compound 0.6325 µM) was 0.847 and the relative viability ([9]; first compound 2 µM) was 0.697. It also gave a relative viability ([9]; first compound 6.325 µM) of 0.995, a relative viability ([9]; first compound 20 µM) of 0.934 and a relative viability ([10]; first compound 0.2 µM) of 0.853. It also gave a relative viability ([10]; first compound 0.6325 µM) of 0.996, a relative viability ([10]; first compound 2 µM) of 1.04 and a relative viability ([10]; first compound 6.325 µM) of 0.945. It also gave a relative viability ([10]; first compound 20 µM) of 1.03, a relative viability ([11]; first compound 0.2 µM) of 0.932 and a relative viability ([11]; first compound 6.325 µM) of 0.942. The relative viability ([11]; first compound 20 µM) was 0.862, the relative viability ([12]; first compound 0.2 µM) was 0.97 and the relative viability ([12]; first compound 0.6325 µM) was 0.399. The relative viability ([12]; first compound 6.325 µM) was 0.757, the relative viability ([12]; first compound 20 µM) was 0.0326 and the relative viability ([13]; first compound 0.2 µM) was 1.08. The relative viability ([13]; first compound 0.6325 µM) was 0.545, the relative viability ([13]; first compound 2 µM) was 0.613 and the relative viability ([13]; first compound 6.325 µM) was 0.0073. The relative viability ([13]; first compound 20 µM) was 0.0038, the relative viability ([14]; first compound 0.2 µM) was 1.05 and the relative viability ([14]; first compound 0.6325 µM) was 1. The relative viability ([14]; first compound 6.325 µM) was 0.869, the relative viability ([14]; first compound 20 µM) was 0.0887 and the relative viability ([15]; first compound 0.2 µM) was 1.29. It also gave a relative viability ([15]; first compound 0.6325 µM) of 0.894, a relative viability ([15]; first compound 2 µM) of 0.972 and a relative viability ([15]; first compound 6.325 µM) of 1.09. The relative viability ([15]; first compound 20 µM) was 1.14, the relative viability ([16]; first compound 0.2 µM) was 1.13 and the relative viability ([16]; first compound 2 µM) was 0.859. It also gave a relative viability ([16]; first compound 6.325 µM) of 0.674, a relative viability ([16]; first compound 20 µM) of 0.107 and a relative viability ([17]; first compound 0.2 µM) of 0.386. For the same compound, the relative viability ([17]; first compound 0.6325 µM) was 0.247, the relative viability ([17]; first compound 2 µM) was 0.301 and the relative viability ([17]; first compound 6.325 µM) was 0.356. It also gave a relative viability ([17]; first compound 20 µM) of 0.169, a relative viability ([18]; first compound 0.2 µM) of 1.21 and a relative viability ([18]; first compound 0.6325 µM) of 1.02. For the same compound, the relative viability ([18]; first compound 2 µM) was 1.04, the relative viability ([18]; first compound 6.325 µM) was 1.14 and the relative viability ([18]; first compound 20 µM) was 1.06. It also gave a relative viability ([19]; first compound 0.2 µM) of 0.779, a relative viability ([19]; first compound 0.6325 µM) of 0.796 and a relative viability ([19]; first compound 2 µM) of 0.875. For the same compound, the relative viability ([19]; first compound 6.325 µM) was 0.456 and the relative viability ([19]; first compound 20 µM) was 0.0414.
